Tests used:
Type in all cases: in vivo
[1] = tested on: extracellular concentrations of dopamine and noradrenaline in the frontal cortex; test: Measurement of the extracellular concentrations of dopamine and noradrenaline in the frontal cortex of the conscious rat (microdialysis); settings: 40.0 mg/kg p.o., 30 minutes post administration, frontal cortex dialysate
Description: Measurement of the Extracellular Concentrations of Dopamine and Noradrenaline in the Frontal Cortex of the Conscious Rat
Dialysis. The surgery is performed under pentobarbital-induced anaesthesia (60 mg/kg, i.p.). The rats are placed in a Kopf stereotaxic device and a cannula guide (CMA Microdialysis AB, Stockholm, Sweden) is implanted in the frontal cortex at the coordinates: anteroposterior: +2.2, lateral: ±0.6, ventral deviation: −0.2. The rats are placed in separate cages and recover from the anaesthesia over 5 days. […]
Chromatography. Dopamine (DA) and noradrenaline (NA) are simultaneously measured as follows: 20 μl of dialysate sample are diluted with 20 μl of mobile phase (75 mM NaH2PO4, 20 μM EDTA, 1 mM sodium decanesulphonate, 17.5% methanol, 0.01% triethylamine, pH: 5.70) and 33 μl are analysed by HPLC using, for separation, an inversephase column (Hypersil C18, 150×4.6 mm; particle size 5 μm) thermostatically controlled at 43° C. and, for quantification, a coulometric detector (ESA5014, Coulochem II, ESA, Chelmsford, USA). […]
The compound of Example 1 (40.0 mg/kg, p.o.) causes a substantial increase in the extracellular concentrations of DA and NA in the dialysates collected from the frontal cortex of conscious rats. The data are expressed as the mean ±S.E.M. The levels of DA and NA are expressed with respect to the mean values before administration of the drug. […]

5-HT2c receptors = biological target: T1, 5-HT2c receptors (Rattus norvegicus, UniProt P08909); test: Penile erection test following administration of Ro 60-0175 (1.25 mg/kg, s.c.) in the rat; settings: Wistar rat; for % inhibition of penile erections: Ro 60-0175 1.25 mg/kg s.c. 30 min later
T1 construct: from tissue; host or cells: whole living male Wistar rat (in vivo)
T1 sequence (P08909 33-460): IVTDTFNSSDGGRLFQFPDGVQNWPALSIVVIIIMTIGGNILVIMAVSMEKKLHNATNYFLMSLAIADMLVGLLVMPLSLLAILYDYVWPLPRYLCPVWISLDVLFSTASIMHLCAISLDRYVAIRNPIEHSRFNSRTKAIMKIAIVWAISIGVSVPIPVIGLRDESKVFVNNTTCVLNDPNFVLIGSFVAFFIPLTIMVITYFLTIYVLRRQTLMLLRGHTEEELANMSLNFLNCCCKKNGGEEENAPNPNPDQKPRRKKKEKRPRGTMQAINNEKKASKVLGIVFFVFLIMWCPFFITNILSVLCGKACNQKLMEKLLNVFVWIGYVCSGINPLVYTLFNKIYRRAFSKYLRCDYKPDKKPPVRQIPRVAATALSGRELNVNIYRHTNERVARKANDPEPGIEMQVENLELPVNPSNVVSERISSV
Description: Penile Erection Test Following Administration of Ro 60-0175 (1.25 mg/kg, s.c.) in the Rat
This test allows evaluation of the capacity of pharmacological agents to inhibit penile erections caused by administration of a selective 5-HT2c agonist, Ro 60-0175. Inhibition is therefore predictive of antagonist activity with respect to 5-HT2c receptors. Male rats of the Wistar strain (Iffa-Credo, L'Arbresle, France) weighing 120–140 g on the day of the experiment are placed separately in plexiglass observation boxes (7.5×18×30 cm) immediately after the compound or the carrier has been administered. Thirty minutes later, Ro 60-0175 (1.25 mg/kg, s.c.) is administered to the animals and the number of erections occurring during the next 30 minutes is counted.

[2] = Social interaction test in the rat; settings: 1 hour before the test, Sprague-Dawley rat, carrier 183 ± 7
Description: Social Interaction Test in the Rat
This test allows evaluation of the potential anxiolytic activity of the compounds. Male rats of the Sprague-Dawley strain (Charles River, Saint-Aubin-les-Elbeuf, France) weighing 240–260 g on arrival are isolated in individual cages for 5 days in dimly lit animal quarters (3–10 lux). The test is carried out on the final day and consists of placing the animals in pairs, matched by weight (±5 g), in a brightly lit enclosure (300 lux) for 10 minutes. The time spent by the animals in interacting with one another (grooming, chasing, . . . ) is measured. The compound or the carrier is administered to the animals 1 hour before the test, each couple receiving the same treatment. The anxiolytic effect of a compound is reflected by an increased duration of interaction compared to that of animals to whom the carrier has been administered.

Vogel conflict test = settings: 30 minutes before test, 3 minutes, Wistar rat, carrier 77.1 ± 14.7
Description: The test is carried out in a transparent plastics cage (32×25×30 cm) located in a soundproofed and ventilated enclosure. The cage has a chrome steel floor. The metal tip of the drink-containing bottle enters the cage at a height of 6 cm above the metal floor. The floor and the tip of the bottle are connected by electric cables to an “Anxiometer” apparatus (Columbus Instruments, Ohio, USA), which records the licks of the animal and controls the administration of electric shocks.
For the 4 days preceding the test, the rats (male Wistar rats weighing 250–270 g) (3 per cage) have access to drink for only one hour per day. On the day before the test, the animals are isolated in cages, on grills, without food or drink, immediately after their final hour of access to drink. The test takes place on the 5th day. On the day of the test, the animal is given by gavage (p.o.) either the solvent (suspension of distilled water+Tween 80) (control) or the compound, 30 minutes before being placed in the test cage. The session begins as soon as the animal has carried out 20 licks and has received a first electric shock (between the metal tip and metal floor), (constant current, 0.5 sec. duration, 0.3 mA intensity). Subsequently, the animal receives an electric shock each time it carries out 20 licks, for a period of 3 minutes. Animals not having performed the first 20 licks of the session by the end of 5 minutes are withdrawn from the test. The results are the numbers of licks performed by the animal during the 3 minutes of the test.

SMILES: O=C(Nc1cccnc1)N1CCc2c1ccc1ccccc21 [Example 1, N-(3-Pyridyl)-1,2-dihydro-3H-benzo[e]indole-3-carboxamide]
- Extracellular DA level with respect to the mean values before administration (mean ±S.E.M.) ([1]; solvent = +3.9±9.8, in % (unit assumed)): +95.0±12.9
- Extracellular NA level with respect to the mean values before administration (mean ±S.E.M.) ([1]; solvent = +8.7±11.9, in % (unit assumed)): +118.2±16.7
- % inhibition of penile erections (5-HT2c receptors; 0.25 mg/kg p.o.): 12%
- % inhibition of penile erections (5-HT2c receptors; 0.63 mg/kg p.o.): 16%
- % inhibition of penile erections (5-HT2c receptors; 1.00 mg/kg p.o.): 50%
- % inhibition of penile erections (5-HT2c receptors; 2.5 mg/kg p.o.): 88%
- % inhibition of penile erections (5-HT2c receptors; 10.0 mg/kg p.o.): 100%
- ED50 (5-HT2c receptors; po, inhibition of Ro 60-0175-induced penile erections, p.o., read-out: ID50 (inhibitory dose50)): 1.16 mg/kg
- Duration of social interactions (s) mean ± s.e.m. (n) ([2]; 0.16 mg/kg p.o.): 187 ± 11 (5) s
- Duration of social interactions (s) mean ± s.e.m. (n) ([2]; 0.63 mg/kg p.o., p < 0.05): 228 ± 11 (5) s
- Duration of social interactions (s) mean ± s.e.m. (n) ([2]; 2.5 mg/kg p.o., p < 0.05): 242 ± 15 (5) s
- Duration of social interactions (s) mean ± s.e.m. (n) ([2]; 10.0 mg/kg p.o., p < 0.05): 233 ± 10 (5) s
- Punished licks (1 shock/20 licks) Mean ± s.e.m. (n) (Vogel conflict test; 2.5 mg/kg p.o.): 92.2 ± 20.7 (5)
- Punished licks (1 shock/20 licks) Mean ± s.e.m. (n) (Vogel conflict test; 10.0 mg/kg p.o.): 145.2 ± 46.3 (5)
- Punished licks (1 shock/20 licks) Mean ± s.e.m. (n) (Vogel conflict test; 40.0 mg/kg p.o., p < 0.05): 324.4 ± 70.7 (10)
